Measurements as given in patent US8334364B2, “High-molecular weight derivative of nucleic acid antimetabolite” (priority 2006, dated 2012).
Structures can show the parent of a compound that is named as a salt.

Tests used:
[1] = tested on: mouse colon cancer, Colon26; assay: Antitumor effect against tumor-bearing mouse (1); type: in vivo; settings: once intravenously, 7th day after initiation of administration, average ± SD, volume on day of initiation = 1.0
Description: Tumor of mouse colon cancer, Colon26, maintained by serial subcutaneous subculture in mice, was minced into about 2-mm square blocks, and the blocks were transplanted subcutaneously on the dorsal part of a mouse using a trocar. On the 7th day after tumor transplantation, the compound of Example 1 (indicated as Compound 1 in Table 2) and the compound of Example 2 (indicated as Compound 2 in Table 2), respectively dissolved in physiological saline, and gemcitabine hydrochloride as a control drug dissolved in a 5% glucose injection solution were respectively administered once intravenously at the doses indicated in Table 2. The tumor volumes on the day of initiation of administration and on the 7th day after the initiation of administration were calculated by the following equation, and the relative tumor volumes on the day of initiation of administration and on the 7th day after the initiation of administration were determined.

[2] = tested on: mouse colon cancer, Colon26; assay: Antitumor effect against tumor-bearing mouse (2); type: in vivo; settings: once intravenously, 8th day after initiation of administration, average ± SD, volume on day of initiation = 1.0
Description: Tumor of mouse colon cancer, Colon26, maintained by serial subcutaneous subculture in mice, was minced into about 2-mm square blocks, and the blocks were transplanted subcutaneously on the dorsal part of a mouse. On the 7th day after tumor transplantation, the compound of Example 3 (indicated as Compound 3 in Table 3) and the compound of Example 4 (indicated as Compound 4 in Table 3), respectively dissolved in physiological saline, and gemcitabine hydrochloride as a control drug dissolved in a 5% glucose injection solution were respectively administered once intravenously at the doses indicated in Table 3. The tumor volumes on the day of initiation of administration and on the 8th day after the initiation of administration were calculated in the same manner as in Test Example 3, and the relative tumor volumes on the day of initiation of administration and on the 8th day after the initiation of administration were determined.

[3] = dose 200 mg/kg in terms of gemcitabine hydrochloride

**Q.** With `Nc1ccn([C@@H]2O[C@H](CO)[C@@H](O)C2(F)F)c(=O)n1` [Control drug, gemcitabine hydrochloride] as the molecule, how does the Relative tumor volume ([1]; dose 100 mg/kg in terms of gemcitabine hydrochloride) read?
**A.** Its Relative tumor volume is 3.9 ± 0.5.

**Q.** What about the Relative tumor volume [1, 3] of the same molecule?
**A.** The Relative tumor volume was 3.4 ± 0.6.

**Q.** What about the Relative tumor volume ([2]; dose 40 mg/kg in terms of gemcitabine hydrochloride) of the same molecule?
**A.** The Relative tumor volume was 5.3 ± 1.1.

**Q.** And the Relative tumor volume [2, 3]?
**A.** Its Relative tumor volume is 4.8 ± 1.7.
